Experimental data: patent publication US20150017093A1, “RADIOLABELED BILE ACIDS AND BILE ACID DERIVATIVES” (Aarhus Universitet, priority 2012, published 2015)
Entries after “also recorded” stand apart in the source; their conditions may differ. One block for each compound: values may come before it.

Tests used:
[1] = cited from earlier work
[2] = Stability of the tracer in its final formulation; format: physicochemical; settings: up to 2.5 h after the end of the synthesis
Procedure: The three-step radiosynthesis provided 0.56-1.09 GBq of ^11C—CSar (5) with a radiochemical yield of 13±3% (mean±SD; n=7, decay-corrected) and with radiochemical purity >99% within 40 min. The radiochemical yield of the intermediate ^11C-cholylsarcosine methyl ester 4 was approximately 20% and the deprotection proceeded with full conversion to give ^11C—CSar exclusively.

[3] = Dynamic ^11C—CSar PET/CT in patients with cholestasis; format: in vivo, human; settings: patient with BRIC-1 cholestasis; intravenous infusion
Source text: Two dynamic PET/CT studies in humans have been performed; one in a patient with inherited cholestasis and the other in a patient with drug-induced cholestasis. FIG. 4 illustrates the findings in the patient with inherited cholestasis; a person diagnosed with BRIC-1 (benign recurrent intrahepatic cholestasis), who was examined during a cholestatic episode with severe pruritus, hyperbilirubinemia and high plasma bile acid concentrations. […] Images from the second patient show similar changes.

[4] = Whole-body PET/CT biodistribution and dosimetry (OLINDA/EXM), Pig 2; format: in vivo; settings: for Absorbed dose estimate / Effective dose: Pig 2 (40 kg) extrapolated to 74-kg human; for Effective dose: ICRP 60
Procedure: For the biodistribution study, ^11C—CSar was administrated intravenously in Pig 2 followed by five whole-body PET scans with one minute between scans and with progressive increase of scan durations per bed-position, i.e. 1, 2, 3, 4 and 5 min, respectively. […] Other source organs (gallbladder, stomach, small intestines, and kidneys) had non-uniform radioactivity distribution and for these organs, the total activity was estimated using a large VOI encompassing all accumulated radioactivity. For each source organ, the time course of the non-decay-corrected total radioactivity was generated. Data were extrapolated from pig (40 kg) to human (74 kg) and recalculated into time courses of fractions of injected dose (% ID). Residence times were computed as the trapezoidal sum of the time course of % ID assuming that the radioactivity decayed only by physical decay after the last scan. Residence time for the rest of the body was calculated as the total body residence time (without voiding) minus the sum of the residence times from the source organs. The residence times were entered into OLINDA/EXM 1.0 (Stabin M G, Sparks R B, Crowe E. OLINDA/EXM: The second-generation personal computer software for internal dose assessment in nuclear medicine. J Nucl Med. 2005; 46:1023-1027) to compute absorbed doses using the male reference phantom and to obtain effective dose values according to ICRP 60.

[5] = test system: transhepatic transport of ^11C—CSar; settings: Pig 1
Procedure: Pigs 1 and 2 underwent 90-min dynamic PET/CT recordings (list-mode) using intravenous administration of 400 MBq ^11C—CSar. […] In Pig 2, a second ^11C—CSar administration was given to determine the biodistribution of the tracer by means of whole-body PET/CT recordings. In both pigs, at least 6 half-lives of the ^11C-isotope (half-live: 20.4 min) were allowed to pass between tracer administrations.
The decay-corrected dynamic PET data were reconstructed using the iterative TrueX algorithm (3 iterations, 21 subsets) and post-filtered using a 3 mm Gaussian filter yielding 3D-images of 168×168×109 voxels. Time-activity curves (TACs) were generated from volumes of interest (VOIs) drawn in liver tissue, intrahepatic bile ducts, and choledochus using fused PET/CT images.

[6] = Plasma free fraction by ultrafiltration; format: in vitro ADME; settings: female, Danish Landrace and Yorkshire cross-breed, pig
Procedure: The plasma free fraction of ^11C—CSar was determined in plasma samples collected prior to tracer administration in all three pigs; moreover, plasma was collected 10 seconds after end of cholyltaurine infusion in Pig 1, i.e. before the ^11C—CSar administration. The plasma samples were mixed with aliquots of ^11C—CSar, pipetted into ultrafiltration units (Pall Nanosep Centrifugal Device, Cut-off 30,000 D, Sigma-Aldrich) and centrifuged at room temperature (10 min at 12,000 rpm). Radioactivity in plasma and ultrafiltrates were counted in the well counter. Filter retention of the tracer was determined using sodium phosphate buffer solution (35 mM; pH 7.2). The free fraction was calculated as the ratio of radioactivity concentration in the ultrafiltrate corrected for filter retention to the total radioactivity concentration in plasma.

[7] = Dynamic PET/CT with arterial blood sampling after intravenous ^11C—CSar in pigs; format: in vivo, pig
Procedure: Three pigs (3-month old female Danish Landrace and Yorkshire cross-breed; body weight 35-40 kg) were fasted for 18 h with free access to water. Each animal was premedicated with midazolam and s-ketamine, anaesthetized with a mixture of midazolam, s-ketamine and propofol, and mechanically ventilated as previously described (Sørensen M. Munk O L, Mortensen F V, et al. Hepatic uptake and metabolism of galactose can be quantified in vivo by 2-[^18F]fluoro-2-deoxy-galactose positron emission tomography. Am J Physiol Gastrointest Liver Physiol. 2008; 295:G27-G36). The animal was placed on a thermostatically-controlled heating blanket, keeping the rectal temperature 38.5-39.5° C. By adjusting the mechanical respiration, arterial blood pCO2, pO2, and pH were kept between 5.3-7.2 kPa, 12-25 kPa, and 7.35-7.45, respectively. Blood glucose was 5.0-6.7 mM. Catheters (Cordis) were inserted into the femoral vein and artery for intravenous administrations and blood sampling, respectively. After completion of the experiment, the animal was euthanized with an overdose of pentobarbital (100 mg/kg).
For PET/CT studies, the pig was placed on the back in a Siemens Biograph 64 Truepoint PET/CT camera with a 21 cm transaxial PET field-of-view. A CT scan (250 effective mAs with CAREDose4D, 120 kV, pitch 1.0, slice thickness 2.0 mm) was performed for definition of anatomical structures and attenuation correction of the PET recordings.
During the dynamic PET recordings of Pig 1 and 2, blood samples (0.5 mL) were collected from the femoral artery at 12×5, 6×10, 6×30, 5×60, 8×600 seconds. The radioactivity concentrations in the samples were measured in a well counter (Packard Biosciences) that was cross-calibrated to the PET camera. Additional blood samples were collected 2, 5, 10, 20, 40, 60, and 90 min after tracer administration for determination of ^11C-metabolites in plasma.

[8] = cholyltaurine pretreatment vs. without

Compound: C[C@H](CCC(=O)N(C)CC(=O)O)[C@H]1CC[C@H]2[C@@H]3[C@H](O)C[C@@H]4C[C@H](O)CC[C@]4(C)[C@H]3C[C@H](O)[C@]12C [CSar, N-methyl-cholylglycine]
toxicity to humans [1]: non-toxic
biotransformation during enterohepatic circulation ([1]; humans): without hepatic or intestinal biotransformation

alterations in chemical or radiochemical purity [2]: no alterations
Absorbed dose estimate ([4]; Adrenals): 2.88 μGy/MBq
Absorbed dose estimate ([4]; Bone surface): 2.87 μGy/MBq
Absorbed dose estimate ([4]; Brain): 1.57 μGy/MBq
Absorbed dose estimate ([4]; Breasts): 1.66 μGy/MBq
Absorbed dose estimate ([4]; Gallbladder wall): 59.40 μGy/MBq
Absorbed dose estimate ([4]; Heart wall): 2.33 μGy/MBq
Effective dose [4]: 4.4 μSv/MBq
Effective dose ([4]; listed as 11C-CSar): 4.40 μSv/MBq
Absorbed dose estimate ([4]; Kidneys): 2.34 μGy/MBq
Absorbed dose estimate ([4]; Liver): 10.80 μGy/MBq
Absorbed dose estimate ([4]; Lower large intestine wall): 3.91 μGy/MBq
Absorbed dose estimate ([4]; Lungs): 2.06 μGy/MBq
Absorbed dose estimate ([4]; Muscle): 2.23 μGy/MBq
Absorbed dose estimate ([4]; Ovaries): 4.97 μGy/MBq
Absorbed dose estimate ([4]; Pancreas): 3.36 μGy/MBq
radioactivity in other organs, including the urinary bladder ([4]; Pig 2, whole-body PET scans): Virtually no radioactivity was detected
Absorbed dose estimate ([4]; Red marrow): 2.34 μGy/MBq
Absorbed dose estimate ([4]; Skin): 1.61 μGy/MBq
Absorbed dose estimate ([4]; Small intestine): 39.30 μGy/MBq
Absorbed dose estimate ([4]; Spleen): 2.37 μGy/MBq
Absorbed dose estimate ([4]; Stomach wall): 3.92 μGy/MBq
Absorbed dose estimate ([4]; Testes): 1.82 μGy/MBq
Absorbed dose estimate ([4]; Thymus): 1.88 μGy/MBq
Absorbed dose estimate ([4]; Thyroid): 1.78 μGy/MBq
Absorbed dose estimate ([4]; Total body): 2.83 μGy/MBq
Absorbed dose estimate ([4]; Upper large intestine wall): 7.07 μGy/MBq
Absorbed dose estimate ([4]; Urinary bladder wall): 2.67 μGy/MBq
Absorbed dose estimate ([4]; Uterus): 4.62 μGy/MBq
decrease of liver tissue TAC with time [5, 8]: significantly slower
rate of increase of TAC in the choledochus [5, 8]: much slower rate
maximum value of choledochus TAC relative to that without pretreatment ([5]; pretreatment with cholyltaurine): 2%
maximum radioactivity concentration of liver tissue TAC compared to studies without cholyltaurine ([5]; pretreatment with cholyltaurine 286 mg/kg i.v.): approximately 40%
fraction unbound ([6]; plasma collected after administration of cholyltaurine (Pig 1)): 1
fraction unbound ([6]; plasma collected before tracer administration, n=3): 0.18 ± 0.02
time to peak of liver TAC ([7]; Pig 1 and 2, after intravenous tracer): ≤ 3 min
uptake into liver tissue ([7]; Pig 1 and 2, intravenous, dynamic PET/CT): rapid uptake
time of appearance of radioactivity in the intrahepatic bile ducts ([7]; after ^11C—CSar administration): approximately one
time at which radioactivity in liver tissue and bile ducts increased again (enterohepatic circulation) ([7]; after administration of the tracer): about 75 min
time to peak radioactivity concentration in the choledochus ([7]; after tracer administration): 4 to 6 min
time for liver TAC to decrease to very low concentrations ([7]; pig, in vivo): 30 to 40 min
time of appearance of radioactivity in the choledochus ([7]; relative to appearance in intrahepatic bile ducts): one minute later
Compound: C[C@H](CCC(=O)N([11CH3])CC(=O)O)[C@H]1CC[C@H]2[C@@H]3[C@H](O)C[C@@H]4C[C@H](O)CC[C@]4(C)[C@H]3C[C@H](O)[C@]12C [^11C—CSar, N-(3α,7α,12α-Trihydroxy-24-oxocholan-24-yl)-N—[^11C]methyl-glycine]
distribution of tracer on PET/CT 5 min after start of infusion [3]: still observed in the liver; also recorded: still ^11C—CSar in the liver
distribution of tracer on PET/CT 25 min after start of infusion [3]: accumulated in the liver and intrahepatic bile ducts
organs with high accumulation of tracer relative to surrounding tissue ([4]; Pig 2, whole-body PET scans): liver, gallbladder, stomach, and small intestines
peak radioactivity concentration of liver TAC ([7]; relative to arterial TAC): comparable to the peak concentration of the arterial TAC

Compound: cholyltaurine [reference compound]
effect on hepatic uptake and biliary excretion of ^11C—CSar ([5]; 286 mg/kg intravenous 50-second infusion before tracer): markedly inhibited
